Laboratory results from ChEMBL document CHEMBL4507256 (2021).

Experiments:
[1] = target: Activin receptor type-1-like (Homo sapiens) (UniProt P37023); settings: Compound concentration 1000.0 nM
[2] = target: Atypical kinase COQ8B, mitochondrial (Homo sapiens) (UniProt Q96D53); settings: Compound concentration 1000.0 nM
[3] = target: RAC-gamma serine/threonine-protein kinase (Homo sapiens) (UniProt Q9Y243); settings: Compound concentration 1000.0 nM
[4] = target: Aurora kinase B (Homo sapiens) (UniProt Q96GD4); settings: Compound concentration 1000.0 nM
Chain of Aurora kinase B (Homo sapiens) (Q96GD4 whole entry): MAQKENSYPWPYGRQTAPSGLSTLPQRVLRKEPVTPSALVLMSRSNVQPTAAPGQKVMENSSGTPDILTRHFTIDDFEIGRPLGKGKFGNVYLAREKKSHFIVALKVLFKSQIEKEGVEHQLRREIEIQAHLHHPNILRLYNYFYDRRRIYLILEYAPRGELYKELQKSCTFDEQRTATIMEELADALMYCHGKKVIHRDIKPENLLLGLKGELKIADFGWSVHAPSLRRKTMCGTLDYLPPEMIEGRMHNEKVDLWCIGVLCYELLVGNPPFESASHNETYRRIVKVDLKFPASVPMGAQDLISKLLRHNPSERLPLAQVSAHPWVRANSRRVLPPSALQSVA

[5] = target: Tyrosine-protein kinase Blk (Homo sapiens) (UniProt P51451); settings: Compound concentration 1000.0 nM
[6] = target: Bone morphogenetic protein receptor type-1B (Homo sapiens) (UniProt O00238); settings: Compound concentration 1000.0 nM
Chain of Bone morphogenetic protein receptor type-1B (Homo sapiens) (O00238 whole entry): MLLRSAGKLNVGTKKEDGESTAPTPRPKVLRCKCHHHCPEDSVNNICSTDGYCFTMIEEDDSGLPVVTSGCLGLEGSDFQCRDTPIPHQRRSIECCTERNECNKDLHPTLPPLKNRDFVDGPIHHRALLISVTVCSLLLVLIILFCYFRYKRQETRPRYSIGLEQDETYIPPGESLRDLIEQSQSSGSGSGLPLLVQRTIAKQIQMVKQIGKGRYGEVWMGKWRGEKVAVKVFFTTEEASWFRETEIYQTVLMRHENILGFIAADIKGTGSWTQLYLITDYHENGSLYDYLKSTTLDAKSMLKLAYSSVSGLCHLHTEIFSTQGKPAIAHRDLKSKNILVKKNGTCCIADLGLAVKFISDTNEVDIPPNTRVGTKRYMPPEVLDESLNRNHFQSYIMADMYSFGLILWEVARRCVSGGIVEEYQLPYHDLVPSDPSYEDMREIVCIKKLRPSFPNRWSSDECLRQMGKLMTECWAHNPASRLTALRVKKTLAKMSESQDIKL

[7] = target: Calcium/calmodulin-dependent protein kinase type II subunit beta (Homo sapiens) (UniProt Q13554); settings: Compound concentration 1000.0 nM
[8] = target: Cyclin-dependent kinase-like 5 (Homo sapiens) (UniProt O76039); settings: Compound concentration 1000.0 nM
[9] = target: Dual specificity protein kinase CLK4 (Homo sapiens) (UniProt Q9HAZ1); settings: Compound concentration 1000.0 nM
[10] = target: Tyrosine-protein kinase CSK (Homo sapiens) (UniProt P41240); settings: Compound concentration 1000.0 nM
[11] = target: Epithelial discoidin domain-containing receptor 1 (Homo sapiens) (UniProt Q08345); settings: Compound concentration 1000.0 nM
Chain of Epithelial discoidin domain-containing receptor 1 (Homo sapiens) (Q08345 whole entry, the tested form may be a part): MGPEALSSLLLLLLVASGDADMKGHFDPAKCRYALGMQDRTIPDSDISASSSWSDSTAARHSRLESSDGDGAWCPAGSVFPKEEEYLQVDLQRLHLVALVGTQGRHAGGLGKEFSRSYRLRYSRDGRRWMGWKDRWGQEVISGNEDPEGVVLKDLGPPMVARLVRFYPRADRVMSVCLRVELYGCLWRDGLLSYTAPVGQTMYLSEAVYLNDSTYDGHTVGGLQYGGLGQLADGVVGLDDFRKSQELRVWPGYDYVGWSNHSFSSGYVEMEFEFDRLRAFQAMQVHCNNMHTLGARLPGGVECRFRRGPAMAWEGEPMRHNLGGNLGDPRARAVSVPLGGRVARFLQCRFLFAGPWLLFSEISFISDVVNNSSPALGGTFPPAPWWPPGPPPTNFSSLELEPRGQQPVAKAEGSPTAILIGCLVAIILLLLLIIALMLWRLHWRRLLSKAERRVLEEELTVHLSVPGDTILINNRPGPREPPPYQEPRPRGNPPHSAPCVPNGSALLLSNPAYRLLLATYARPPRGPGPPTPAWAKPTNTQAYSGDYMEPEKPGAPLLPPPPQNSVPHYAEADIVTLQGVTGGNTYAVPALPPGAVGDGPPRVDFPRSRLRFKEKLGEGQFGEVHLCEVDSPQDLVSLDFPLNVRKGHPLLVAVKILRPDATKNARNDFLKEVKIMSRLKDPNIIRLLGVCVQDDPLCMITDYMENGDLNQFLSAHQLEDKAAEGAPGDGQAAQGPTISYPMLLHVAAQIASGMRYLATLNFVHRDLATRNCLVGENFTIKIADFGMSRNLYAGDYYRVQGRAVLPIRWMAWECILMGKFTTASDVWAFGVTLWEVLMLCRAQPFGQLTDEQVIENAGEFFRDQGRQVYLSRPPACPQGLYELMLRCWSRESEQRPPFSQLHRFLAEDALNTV

[12] = target: Mitogen-activated protein kinase kinase kinase 12 (Homo sapiens) (UniProt Q12852); settings: Compound concentration 1000.0 nM
Chain of Mitogen-activated protein kinase kinase kinase 12 (Homo sapiens) (Q12852 whole entry): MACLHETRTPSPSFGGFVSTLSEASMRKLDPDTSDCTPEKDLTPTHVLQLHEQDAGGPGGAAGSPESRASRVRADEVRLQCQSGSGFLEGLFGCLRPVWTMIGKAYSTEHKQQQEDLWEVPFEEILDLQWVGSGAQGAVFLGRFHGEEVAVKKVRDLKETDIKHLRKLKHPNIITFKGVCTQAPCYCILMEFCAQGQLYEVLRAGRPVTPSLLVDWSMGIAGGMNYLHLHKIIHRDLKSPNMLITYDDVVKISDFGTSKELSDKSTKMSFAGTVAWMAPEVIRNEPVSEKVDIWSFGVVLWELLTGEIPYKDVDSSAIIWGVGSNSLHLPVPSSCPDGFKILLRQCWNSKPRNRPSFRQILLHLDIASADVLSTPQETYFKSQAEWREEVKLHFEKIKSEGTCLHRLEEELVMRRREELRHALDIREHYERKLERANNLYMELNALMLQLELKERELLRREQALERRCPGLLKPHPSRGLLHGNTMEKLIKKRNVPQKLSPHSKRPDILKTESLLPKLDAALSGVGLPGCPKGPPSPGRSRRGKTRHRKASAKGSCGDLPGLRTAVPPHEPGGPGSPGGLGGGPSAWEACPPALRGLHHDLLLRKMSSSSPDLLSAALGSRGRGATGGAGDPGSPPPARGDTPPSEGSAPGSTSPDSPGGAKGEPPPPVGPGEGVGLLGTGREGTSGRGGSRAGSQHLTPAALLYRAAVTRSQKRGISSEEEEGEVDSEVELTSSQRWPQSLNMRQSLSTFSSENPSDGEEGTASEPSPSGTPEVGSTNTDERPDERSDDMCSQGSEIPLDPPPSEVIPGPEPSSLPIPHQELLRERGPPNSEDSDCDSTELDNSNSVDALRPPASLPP

[13] = tested on: Epidermal growth factor receptor (Homo sapiens), P00533 [T790M]; settings: Compound concentration 1000.0 nM
[14] = target: Receptor-type tyrosine-protein kinase FLT3 (Homo sapiens) (UniProt P36888); settings: Compound concentration 1000.0 nM
[15] = tested on: Receptor-type tyrosine-protein kinase FLT3 (Homo sapiens), P36888 [D835Y]; settings: Compound concentration 1000.0 nM
[16] = tested on: Receptor-type tyrosine-protein kinase FLT3 (Homo sapiens), P36888 [R834Q]; settings: Compound concentration 1000.0 nM
[17] = target: Receptor-type tyrosine-protein kinase FLT3 (Homo sapiens) (UniProt P36888); settings: Compound concentration 1000.0 nM; remark: listed apart in the source
[18] = target: Cyclin-G-associated kinase (Homo sapiens) (UniProt O14976); settings: Compound concentration 1000.0 nM
[19] = target: Tyrosine-protein kinase HCK (Homo sapiens) (UniProt P08631); settings: Compound concentration 1000.0 nM
[20] = target: Hormonally up-regulated neu tumor-associated kinase (Homo sapiens) (UniProt P57058); settings: Compound concentration 1000.0 nM
[21] = target: Mitogen-activated protein kinase 9 (Homo sapiens) (UniProt P45984); settings: Compound concentration 1000.0 nM
Chain of Mitogen-activated protein kinase 9 (Homo sapiens) (P45984 whole entry, looked up): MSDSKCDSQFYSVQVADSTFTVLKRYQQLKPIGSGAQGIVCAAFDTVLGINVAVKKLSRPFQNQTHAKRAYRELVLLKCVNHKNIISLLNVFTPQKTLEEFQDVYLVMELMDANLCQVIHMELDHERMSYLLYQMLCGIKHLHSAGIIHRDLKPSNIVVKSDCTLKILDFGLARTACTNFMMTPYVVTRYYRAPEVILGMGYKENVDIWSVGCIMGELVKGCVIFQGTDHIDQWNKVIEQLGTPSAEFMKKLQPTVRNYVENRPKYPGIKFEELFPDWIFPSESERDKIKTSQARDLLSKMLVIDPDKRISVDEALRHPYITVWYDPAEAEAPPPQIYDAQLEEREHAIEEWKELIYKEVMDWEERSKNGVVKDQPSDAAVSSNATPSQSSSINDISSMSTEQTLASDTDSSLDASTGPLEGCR

[22] = tested on: Mast/stem cell growth factor receptor Kit (Homo sapiens), P10721 [V559D,V654A]; settings: Compound concentration 1000.0 nM
[23] = target: LIM domain kinase 1 (Homo sapiens) (UniProt P53667); settings: Compound concentration 1000.0 nM
[24] = target: Serine/threonine-protein kinase 10 (Homo sapiens) (UniProt O94804); settings: Compound concentration 1000.0 nM
[25] = target: Mitogen-activated protein kinase kinase kinase 13 (Homo sapiens) (UniProt O43283); settings: Compound concentration 1000.0 nM
Chain of Mitogen-activated protein kinase kinase kinase 13 (Homo sapiens) (O43283 whole entry): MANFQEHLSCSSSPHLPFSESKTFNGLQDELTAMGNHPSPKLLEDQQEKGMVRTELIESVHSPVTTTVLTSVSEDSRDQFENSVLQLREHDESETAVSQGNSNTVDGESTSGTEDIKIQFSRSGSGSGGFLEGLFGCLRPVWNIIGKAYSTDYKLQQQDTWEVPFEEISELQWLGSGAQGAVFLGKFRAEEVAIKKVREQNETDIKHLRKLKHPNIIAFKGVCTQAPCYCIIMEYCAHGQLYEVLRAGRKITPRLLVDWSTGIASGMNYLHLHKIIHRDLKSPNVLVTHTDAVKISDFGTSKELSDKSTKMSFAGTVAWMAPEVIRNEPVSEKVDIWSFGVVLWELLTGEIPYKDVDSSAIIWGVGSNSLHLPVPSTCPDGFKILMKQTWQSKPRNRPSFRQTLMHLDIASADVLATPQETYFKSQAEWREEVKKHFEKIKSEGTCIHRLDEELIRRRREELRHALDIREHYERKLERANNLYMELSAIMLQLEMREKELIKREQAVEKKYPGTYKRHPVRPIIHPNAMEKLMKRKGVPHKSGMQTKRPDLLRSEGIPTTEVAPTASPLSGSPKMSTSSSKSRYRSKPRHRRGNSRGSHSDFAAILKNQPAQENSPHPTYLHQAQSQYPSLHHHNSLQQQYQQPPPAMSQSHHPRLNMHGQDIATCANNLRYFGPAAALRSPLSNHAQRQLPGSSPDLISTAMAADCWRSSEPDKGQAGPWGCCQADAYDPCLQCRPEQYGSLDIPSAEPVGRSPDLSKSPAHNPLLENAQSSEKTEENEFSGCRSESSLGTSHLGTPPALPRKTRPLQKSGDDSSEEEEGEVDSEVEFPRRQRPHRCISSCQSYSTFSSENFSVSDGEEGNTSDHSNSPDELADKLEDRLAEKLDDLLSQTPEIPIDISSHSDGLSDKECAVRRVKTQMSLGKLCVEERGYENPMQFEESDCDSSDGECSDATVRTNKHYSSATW

[26] = target: Dual specificity mitogen-activated protein kinase kinase 2 (Homo sapiens) (UniProt P36507); settings: Compound concentration 1000.0 nM
Chain of Dual specificity mitogen-activated protein kinase kinase 2 (Homo sapiens) (P36507 whole entry): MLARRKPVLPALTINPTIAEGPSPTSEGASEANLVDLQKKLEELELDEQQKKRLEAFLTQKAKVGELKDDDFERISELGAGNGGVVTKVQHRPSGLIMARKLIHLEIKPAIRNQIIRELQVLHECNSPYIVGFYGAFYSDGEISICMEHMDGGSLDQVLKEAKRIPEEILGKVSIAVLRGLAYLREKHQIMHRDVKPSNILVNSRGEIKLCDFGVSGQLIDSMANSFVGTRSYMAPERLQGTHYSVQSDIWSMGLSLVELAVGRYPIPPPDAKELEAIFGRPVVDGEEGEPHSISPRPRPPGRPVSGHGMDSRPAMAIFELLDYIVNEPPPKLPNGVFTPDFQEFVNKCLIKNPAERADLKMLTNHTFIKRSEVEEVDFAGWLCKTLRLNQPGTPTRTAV

[27] = target: Tyrosine-protein kinase Mer (Homo sapiens) (UniProt Q12866); settings: Compound concentration 1000.0 nM
[28] = tested on: Hepatocyte growth factor receptor (Homo sapiens), P08581 [Y1235D]; settings: Compound concentration 1000.0 nM
[29] = target: Serine/threonine-protein kinase 4 (Homo sapiens) (UniProt Q13043); settings: Compound concentration 1000.0 nM
[30] = target: Serine/threonine-protein kinase Nek1 (Homo sapiens) (UniProt Q96PY6); settings: Compound concentration 1000.0 nM
[31] = target: Serine/threonine-protein kinase NIM1 (Homo sapiens) (UniProt Q8IY84); settings: Compound concentration 1000.0 nM
Chain of Serine/threonine-protein kinase NIM1 (Homo sapiens) (Q8IY84 whole entry): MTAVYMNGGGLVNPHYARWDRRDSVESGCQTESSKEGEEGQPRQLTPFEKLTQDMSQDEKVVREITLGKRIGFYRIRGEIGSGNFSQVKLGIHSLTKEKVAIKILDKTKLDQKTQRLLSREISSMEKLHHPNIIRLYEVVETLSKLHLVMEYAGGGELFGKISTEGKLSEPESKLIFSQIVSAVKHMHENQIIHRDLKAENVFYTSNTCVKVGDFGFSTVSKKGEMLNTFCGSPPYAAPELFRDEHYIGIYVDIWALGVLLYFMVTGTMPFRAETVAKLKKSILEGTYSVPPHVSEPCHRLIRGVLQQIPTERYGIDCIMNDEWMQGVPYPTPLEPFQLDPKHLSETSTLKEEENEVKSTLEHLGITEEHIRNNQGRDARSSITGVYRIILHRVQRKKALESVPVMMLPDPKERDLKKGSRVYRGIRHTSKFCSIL

[32] = target: Serine/threonine-protein kinase NLK (Homo sapiens) (UniProt Q9UBE8); settings: Compound concentration 1000.0 nM
[33] = tested on: Phosphatidylinositol 4,5-bisphosphate 3-kinase catalytic subunit alpha isoform (Homo sapiens), P42336 [E545K]; settings: Compound concentration 1000.0 nM
[34] = tested on: Phosphatidylinositol 4,5-bisphosphate 3-kinase catalytic subunit alpha isoform (Homo sapiens), P42336 [Q546K]; settings: Compound concentration 1000.0 nM
[35] = target: Phosphatidylinositol 4,5-bisphosphate 3-kinase catalytic subunit delta isoform (Homo sapiens) (UniProt O00329); settings: Compound concentration 1000.0 nM
[36] = target: Serine/threonine-protein kinase pim-2 (Homo sapiens) (UniProt Q9P1W9); settings: Compound concentration 1000.0 nM
[37] = target: Serine/threonine-protein kinase Sgk1 (Homo sapiens) (UniProt O00141); settings: Compound concentration 1000.0 nM
[38] = target: Serine/threonine-protein kinase SIK1 (Homo sapiens) (UniProt P57059); settings: Compound concentration 1000.0 nM
[39] = target: Tyrosine-protein kinase Srms (Homo sapiens) (UniProt Q9H3Y6); settings: Compound concentration 1000.0 nM
[40] = target: Serine/threonine-protein kinase 35 (Homo sapiens) (UniProt Q8TDR2); settings: Compound concentration 1000.0 nM
[41] = target: BDNF/NT-3 growth factors receptor (Homo sapiens) (UniProt Q16620); settings: Compound concentration 1000.0 nM
[42] = target: Tyrosine-protein kinase receptor TYRO3 (Homo sapiens) (UniProt Q06418); settings: Compound concentration 1000.0 nM
[43] = target: Serine/threonine-protein kinase ULK2 (Homo sapiens) (UniProt Q8IYT8); settings: Compound concentration 1000.0 nM
[44] = target: 5-hydroxytryptamine receptor 6 (Homo sapiens) (UniProt P50406); settings: Compound concentration 10.0 uM
[45] = target: D(1A) dopamine receptor (Homo sapiens) (UniProt P21728); settings: Compound concentration 10.0 uM

CCC(=N\O)/C(C)=C/c1ccc(F)c(C)c1 [A-226]
inactive: residual activity [1] 98% | residual activity [2] 83% | residual activity [3] 89% | residual activity [4] 100% | residual activity [5] 91% | residual activity [6] 80% | residual activity [7] 100% | residual activity [8] 100% | residual activity [9] 97% | residual activity [10] 96% | residual activity [11] 91% | residual activity [12] 100% | residual activity [13] 100% | residual activity [14] 93% | residual activity [15] 100% | residual activity [16] 100% | residual activity [17] 100% | residual activity [18] 96% | residual activity [19] 80% | residual activity [20] 91% | residual activity [21] 100% | residual activity [22] 100% | residual activity [23] 100% | residual activity [24] 73% | residual activity [26] 92% | residual activity [27] 100% | residual activity [28] 100% | residual activity [29] 70% | residual activity [30] 100% | residual activity [31] 100% | residual activity [32] 56% | residual activity [33] 100% | residual activity [35] 100% | residual activity [36] 100% | residual activity [37] 100% | residual activity [38] 96% | residual activity [39] 100% | residual activity [40] 100% | residual activity [41] 100% | residual activity [42] 100% | residual activity [43] 100% | inhibition [44] -3.93% | inhibition [45] -0.91%
active: residual activity [25] 23% | residual activity [34] 46%

CCC(=N\O)/C(C)=C/c1ccc(F)cc1 [A-079]
active: residual activity [43] 46%
inactive: residual activity [1] 76% | residual activity [2] 84% | residual activity [3] 83% | residual activity [4] 68% | residual activity [5] 87% | residual activity [6] 87% | residual activity [7] 97% | residual activity [8] 82% | residual activity [9] 100% | residual activity [10] 100% | residual activity [11] 89% | residual activity [12] 76% | residual activity [13] 100% | residual activity [14] 100% | residual activity [15] 91% | residual activity [16] 80% | residual activity [17] 86% | residual activity [18] 99% | residual activity [19] 100% | residual activity [20] 76% | residual activity [21] 92% | residual activity [22] 73% | residual activity [23] 78% | residual activity [24] 76% | residual activity [25] 96% | residual activity [26] 100% | residual activity [27] 100% | residual activity [28] 85% | residual activity [29] 78% | residual activity [30] 94% | residual activity [31] 94% | residual activity [32] 100% | residual activity [33] 100% | residual activity [34] 91% | residual activity [35] 72% | residual activity [36] 83% | residual activity [37] 89% | residual activity [38] 80% | residual activity [39] 76% | residual activity [40] 100% | residual activity [41] 66% | residual activity [42] 100% | inhibition [44] 15.6% | inhibition [45] 13.4%
